From ChEMBL document CHEMBL1833888, “Fuscoside E: a strong anti-inflammatory diterpene from Caribbean octocoral Eunicea fusca” (2011) come the findings set out here.

One assay concerns Bacillus sp. Kind of assay: Antibacterial activity against Bacillus sp. by disc-diffusion assay. It is filed as functional, organism-based. For orientation: In agar diffusion tests the substance spreads into inoculated agar from a disc or well.
In assay [1] the test system is Brucella pseudogrignonensis. The experiment in a line: Antibacterial activity against Ochrobactrum pseudogrignonense 21-6 pin by disc-diffusion assay. It is filed as functional, organism-based.
The next assay relates to Mus musculus. The experiment in a line: Antiinflammatory activity in mouse assessed as inhibition of TPA-induced mouse ear edema at 0.5 mg/ear administered relative to untreated control. It is filed as functional.
A further assay has as its system Vibrio sp. Kind of assay: Antibacterial activity against Vibrio sp. 11-6 DEP. It is filed as functional.

In general, MIC refers to the smallest concentration in the dilution series that meets the test's criterion for growth inhibition. Low values mean greater potency, high ones weaker potency.

Converted amounts (≈) assume the structure as drawn. The source made the active and inactive calls.

As for `CC(C)C(C)/C=C/[C@@H](C)[C@H]1CC[C@H]2[C@@H]3CC=C4C[C@@H](O)CC[C@]4(C)[C@H]3CC[C@]12C` (some centres not stated), the result (with Bacillus sp.; in assay [1]) was Active.

Take `C=C1/C=C/[C@@H](C(C)C)CC/C(C)=C/CC1`: the “inhibition (INH)” value in the assay with Mus musculus was determined as 7.1%. Moreover, the minimum inhibitory concentration (MIC) with Vibrio sp. was found to be 15 µg/mL (≈ 73.4 µM). The outcome (in the assay with Bacillus sp.; in assay [1]) was Active.

As for `CC(C)C(C)CC[C@@H](C)[C@H]1CC[C@H]2[C@@H]3CC=C4C[C@@H](O)CC[C@]4(C)[C@H]3CC[C@]12C` (some centres not stated), the outcome (in the assay with Bacillus sp.; in assay [1]) was Active.

Turning to `CC(=O)O[C@@H]1[C@H](O[C@H]2CC[C@H](C)[C@@]3(C)C[C@@H](/C(C)=C/CC=C(C)C)CC[C@H]23)OC[C@@H](O)[C@H]1O` [FUSCOSIDE E], the “inhibition (INH)” value in the assay with Mus musculus is listed as 80.5%. Besides, the outcome (with Bacillus sp.; in assay [1]) was Active.

With `C/C=C(\CC[C@@H](C)[C@H]1CC[C@H]2[C@@H]3CC=C4C[C@@H](O)CC[C@]4(C)[C@H]3CC[C@]12C)C(C)C`, the result (in the assay with Bacillus sp.; in assay [1]) was Active.

For the compound `CC(C)CCC[C@@H](C)[C@H]1CC[C@H]2[C@@H]3CC=C4C[C@@H](O)CC[C@]4(C)[C@H]3CC[C@]12C`, the outcome (with Bacillus sp.; in assay [1]) was Active.

Take `C=C[C@@]1(C)CC[C@H](/C(C)=C/C=C/C(C)(C)O[C@@H]2OC[C@@H](O)[C@@H](O)[C@@H]2O)C[C@@H]1C(=C)C` [FUSCOSIDE B]: the “inhibition (INH)” value with Mus musculus came to 81.5%.

With `COc1ccc2c(c1)c(CC(=O)O)c(C)n2C(=O)c1ccc(Cl)cc1` [INDOMETHACIN], the “inhibition (INH)” value with Mus musculus is on record as 77.3%.

`CC(C)C/C=C/[C@@H](C)[C@H]1CC[C@H]2[C@@H]3CC=C4C[C@@H](O)CC[C@]4(C)[C@H]3CC[C@]12C`: the outcome (in the assay with Bacillus sp.; in assay [1]) was Active.

As for `C=C[C@@]1(C)CC[C@H](/C(C)=C/C=C/C(C)(C)O)C[C@@H]1C(=C)C` [FUSCOL], in the assay on Mus musculus, the “inhibition (INH)” value was 27.3%.

`C/C=C(/CC[C@@H](C)[C@H]1CC[C@H]2[C@@H]3CC=C4C[C@@H](O)CC[C@]4(C)[C@H]3CC[C@]12C)C(C)C`: the result (in the assay with Bacillus sp.; in assay [1]) was Active.
